Test results reported in a melting point compilation (Tetko et al.; mined from patent text by program, amines drawn as free bases though some values may be those of a salt).

First: CC1CC(=O)NN=C1c1ccc2c(c1)NCCO2 (centres undefined)
Second: CC1SC(=O)NN=C1c1ccc2c(c1)CCCN2C(=O)c1ccc2c(c1)OCO2 (single isomer, unassigned; (-))
The melting point of the first is lower: 166 to 168 °C for the first, 180 °C for the second.

First: CC(C)(C)OC(=O)N1CC(CCl)c2c1cc(OCc1ccccc1)c1ncccc21 (centres undefined)
Second: C=C(Cl)Cn1c(C)c(C)c2cnnc(OCc3ccccc3)c21
The melting point of the first is higher: 178 to 179 °C for the first, 88 to 90 °C for the second.

First: CC(CC#N)C(C#N)(c1ccc(N2CCOCC2)c([N+](=O)[O-])c1)N1CCOCC1 (centres undefined)
Second: Cc1ccc(N2CCN(CCC3CN(C)C(=O)O3)CC2)cc1 (centres undefined)
The melting point of the first is higher: 175 to 177 °C for the first, 96 to 97 °C for the second.

First: CN1C(=O)C2=C(c3ccc(Br)cc3)N(c3ccccc3)C(=O)C2=C1c1ccccc1
Second: Cc1ccc(-n2c(-c3sc(Nc4ccccc4)nc3C)nc3ccccc3c2=O)cc1
The melting point of the first is lower: 255 to 256 °C for the first, 256 to 257 °C for the second.

First: O=C(c1cccc(Cl)c1)N1CCc2cc(S(=O)(=O)N3CCN(c4cccc(Cl)c4)CC3)ccc21
Second: CNCCc1cccc(N2C(=O)N(c3ccc(Cl)cc3Cl)Cc3cnc(Nc4ccccc4)nc32)c1
The melting point of the first is higher: 221 to 222 °C for the first, 120 to 122 °C for the second.

Compared with `CC1CC(C)CN(S(=O)(=O)c2cc(Cl)cc(C(=O)O)c2)C1` (centres undefined), `COC(=O)CN(C)S(=O)(=O)c1ccc(Cl)cc1` is lower in melting point: 226 to 231 °C for the first, 80 to 80.5 °C for the second.

Compared with `O=C(OCc1ccccc1)N1CCC2(CC1)CC(=O)N(O)C2=O`, `O=C(C1CCCCC1)N1C=C2c3ccccc3CCN2C(=O)C1` is higher in melting point: 131 to 132 °C for the first, 136 to 138 °C for the second.

`COc1ccc(OC)c(Cc2cnc3nc(N)nc(N)c3c2C)c1` and `Nc1nc(N)nc(-c2cnc3ccccc3c2)n1` cannot be ordered by melting point: 252 to 254 °C for the first, > 250 °C for the second.

Compared with `CC(C)(C)c1cc(CO)nn1-c1ccc(S(C)(=O)=O)cc1`, `Cc1nc(C)c(C(=O)Nc2ccc(-n3nc(C(F)(F)F)cc3C(F)(F)F)cc2)s1` is higher in melting point: 143 to 146 °C for the first, 158 to 159 °C for the second.

First: CS(=O)(=O)c1ccc(-c2cnn(C3C4CC5CC(C4)CC3C5)c(=O)c2-c2ccc(F)cc2)cc1 (centres undefined)
Second: O=C(ON1C(=O)CCC1=O)c1ccc(-c2ccc(S(=O)(=O)NCCO)cc2)[nH]c1=O
The melting point of the first is lower: 195 to 197 °C for the first, 204 to 205 °C for the second.

First: CCn1c(=O)c(C#N)c(O)c2ccc(C)nc21
Second: CCOC(=O)c1nc2ccc(N)cc2[nH]1
The melting point of the first is higher: 274 to 276 °C for the first, 147 to 149 °C for the second.

First: Cc1[nH]c(=S)n(Nc2cccc(Cl)c2)c1-c1cccc(Br)c1
Second: Cn1c(-c2ccc(Br)cc2)cc2ccccc21
The melting point of the first is higher: 196 °C for the first, 114 to 115 °C for the second.

First: Cc1sc(N2CCOCC2)nc1/C=C/c1cn(-c2ccccc2)nc1O
Second: CC1CCC(=NNc2ccccc2)c2ncc(C(=O)O)c(=O)n21 (single isomer, unassigned; (-))
The melting point of the first is higher: 278 to 279 °C for the first, 255 to 256 °C for the second.

Compared with `CN1CC2CN(C(=O)N3c4ccccc4NC(=O)c4c3c(Cl)cn4C)CC2C1` (centres undefined), `CC(=O)N1CCC(=O)C(C(c2ccccc2)c2ccccc2)C1` (centres undefined) is lower in melting point: > 280 °C for the first, 133 to 136 °C for the second.

First: Cc1ccc(N2C(=O)C(O)=C(C(=O)c3ccc(C(C)C)cc3)C2c2ccc(F)cc2)nn1 (centres undefined)
Second: Cc1c(CO)c2cnnc(OCc3ccc(F)cc3)c2n1Cc1ccccc1
The melting point of the first is higher: 273 to 278 °C for the first, 122 to 124 °C for the second.

First: Cc1cc(CN2CCC(N(C)S(=O)(=O)c3ccc(Nc4nccc(Nc5ccc(F)c(C)c5)n4)cc3)CC2)no1
Second: O=C(CN1CCC(Cc2ccc(F)cc2)CC1)Nc1ccc2cn[nH]c2c1
The melting point of the first is higher: 172 to 173 °C for the first, 135 to 137 °C for the second.

Compared with `Cc1ccc(C(=O)c2ccncc2C(=O)O)cc1`, `O=C(c1ccncc1)c1ccc(Cl)c([N+](=O)[O-])c1` is lower in melting point: 230 to 231 °C for the first, 114 to 116 °C for the second.

First: CCC(CC)(CC(=O)O)C(=O)O
Second: CC1(C)CCc2[nH]cc(C(=O)O)c2C1=O
The melting point of the first is lower: 106 to 109 °C for the first, 225 to 228 °C for the second.

First: O=S1(=O)c2ccc(F)cc2Oc2cc(OCC(F)(F)F)ccc21
Second: CC(C)OP(=O)(CNc1cc(Oc2ccc(C(F)(F)F)cc2Cl)ccc1[N+](=O)[O-])OC(C)C
The melting point of the first is higher: 160 to 161 °C for the first, 93 to 94 °C for the second.

Compared with `COc1ccc(N2CCN(Cc3c[nH]c4ncccc34)CC2)cc1`, `CN(C)c1c[nH]c2ncccc12` is lower in melting point: 213 to 214 °C for the first, 144 to 152 °C for the second.

Compared with `Cn1cc(-c2nnc(-c3ccncc3)o2)c2ccccc21`, `Cn1c2ccccc2c2ccc3ccccc3c21` is lower in melting point: 212 to 214 °C for the first, 167 to 169 °C for the second.

Compared with `CC(C)(C)OC(=O)N[C@H](Cc1ccc(C(F)(F)F)cc1)[C@@H](O)c1ccc(F)cc1` (racemic), `CC(C)(C)C(NC(=O)c1ccc(F)cc1)NC(=NC#N)Nc1cccnc1` (centres undefined) is higher in melting point: 158 to 159 °C for the first, 195 to 196 °C for the second.

Compared with `CSc1cc2ccccc2cc1C=Cc1cc2ccccc2cc1SC`, `Cc1oc(-c2ccccc2)nc1COc1nn(Cc2ccc(Oc3ccccc3)cc2)cc1C=O` is lower in melting point: 195 to 196 °C for the first, 129 to 130 °C for the second.

First: CCCc1cc(NC(=O)c2c(C)nn(C)c2C)c(C)c(-c2cc(CCC)c(C(C(F)(F)F)C(F)(F)F)cc2C)c1
Second: Cc1cc(-c2cc(C(F)(F)F)n3cnc(-c4cccnc4)c3n2)ccc1C(F)(F)F
The melting point of the first is lower: 128 to 131 °C for the first, 173 °C for the second.

First: C=CC(O)c1[nH]c(=O)c2c(ccc3nc(Nc4c(Cl)cccc4Cl)n(C)c32)c1C (centres undefined)
Second: Cc1cc(-n2ccnc2)c2cccc(OCc3c(Cl)ccc(S(=O)(=O)N4CCC[C@H]4C(=O)N(C)C)c3Cl)c2n1
The melting point of the first is higher: 235 to 236 °C for the first, 88 °C for the second.

First: COc1cc(C=CC(=O)c2cccc(F)c2)cc(OC)c1
Second: COCCOc1ccc(CCNC(=O)C=Cc2ccccc2)cc1S(N)(=O)=O
The melting point of the first is lower: 89.5 to 90.3 °C for the first, 133 °C for the second.

First: O=C1N=NC(=O)c2c1[nH]c1cccc(Br)c21
Second: CN(c1cccc2cc(-c3ncc(CS(C)(=O)=O)s3)[nH]c12)S(=O)(=O)c1cccs1
The melting point of the first is higher: > 260 °C for the first, 242 to 243 °C for the second.

First: CCOC(=O)c1ccc(-c2ncc(Cl)nc2Cl)cc1
Second: CCOC(=O)C1=C(C(C)C)Nc2n[nH]cc2C1c1ccccc1OC (centres undefined)
The melting point of the first is lower: 88.5 to 90 °C for the first, 179 to 180 °C for the second.

First: C[C@H](CN1CC(F)C1)NC(=O)c1c[nH]c2ncc(-c3nn(C)c4cc(Cl)ccc34)nc12
Second: COc1ccc2c(c1)c(Cc1cc(=O)n(C3CCCCC3)[nH]1)c(C)n2C(=O)c1ccc(Cl)cc1
The melting point of the first is lower: 182 to 185 °C for the first, 187 to 188 °C for the second.

First: Cc1cc2c(-c3ccccc3)c(NC(=O)N(C)Cc3ccccc3)n(C)c(=O)c2cc1C
Second: COc1ccccc1N1Sc2ccccc2C(c2ccccc2)C1=O (centres undefined)
The melting point of the first is higher: 174 to 176 °C for the first, 133 °C for the second.

Compared with `FC(F)(F)c1cccc(-c2cnnn2-c2cc(Cl)ccc2-c2nnn[nH]2)c1`, `O=C(NC(Cc1cccc(C(F)(F)F)c1)C(=O)N1CCSC1)c1cc2cc(Cl)ccc2[nH]1` (centres undefined) is lower in melting point: 230 to 232 °C for the first, 205 to 207 °C for the second.

First: CCOC(=O)CC(NC(=O)c1ccccc1)C(=O)c1ccsc1 (centres undefined)
Second: Nc1n[nH]cc1C(=O)c1ccccc1
The melting point of the first is lower: 62 to 63 °C for the first, 177 to 179 °C for the second.

`CS(=O)(=O)N[C@@H](CCCCNC=O)C(=O)NC[C@H](CC1(C(=O)N[C@@H](Cc2ccc(O)cc2)C(=O)O)CCCC1)C(=O)O` and `COc1ccccc1CN[C@H]1CCCN(CCCCCC(=O)O)[C@H]1c1ccccc1` (relative stereo) cannot be ordered by melting point: 56 to 60 °C for the first, 53 to 65 °C for the second.

First: CC(=O)O[C@@]12C[C@@H](OC1=O)C(=O)[C@H](O[Si](C)(C)C(C)(C)C)C2
Second: CC(C)(C)[Si](C)(C)O[C@@H]1C[C@]2(O)C[C@@H](OC2=O)[C@@H]1O
The melting point of the first is higher: 134 to 137 °C for the first, 90 to 94 °C for the second.

First: CC(C)(C)OC(=O)CN1CC(c2ccsc2)SCC(N)C1=O (centres undefined)
Second: COc1ccc2c(c1O)CN(C)C(=O)C2c1cc(OC)c(OC)c(OC)c1 (single isomer, unassigned; (+))
The melting point of the first is lower: 115 to 117 °C for the first, 193 to 196 °C for the second.

Compared with `CCCCCCCCCCCc1ccc(F)c(-c2nc(-c3c(F)cccc3F)nn2C)c1`, `CCCCCCCCCCCCc1nnn(CC(=O)OCC)n1` is lower in melting point: 70 to 73 °C for the first, 38 to 40 °C for the second.

Compared with `CCc1nc2c(cnn2CC)c(NC2CCOCC2)c1CNC(=O)c1cc(C)cc(C(=O)NCc2cccc(Br)c2)c1`, `CCNc1nc(=S)n(Cc2ccc(OC)c(OC3CCCC3)c2)c2nc[nH]c12` is lower in melting point: 116 to 118 °C for the first, 72 to 77 °C for the second.

Compared with `Nc1cc(OCCO)ncn1`, `OCCc1ccc(OCC2CO2)cc1` (centres undefined) is lower in melting point: 133 to 137 °C for the first, 56 to 58.5 °C for the second.

First: CC(=O)SC(C(=O)c1cccc(F)c1)C(C)C(=O)N1CCC[C@H]1C(=O)O (some centres undefined)
Second: O=C(Cl)Oc1cccc(NC(=O)C2CC2)c1
The melting point of the first is higher: 158 to 159 °C for the first, 94 °C for the second.

First: NC1=NN(c2nc3ccccc3s2)C(c2ccccc2)C1 (centres undefined)
Second: O=C1C2CC3CCC(C2)N3C1C(c1ccccc1)c1ccccc1 (centres undefined)
The melting point of the first is higher: 270 to 272 °C for the first, 137 to 138 °C for the second.

First: N#CCCN1C(=O)C2(OCCCO2)c2ccc(Cl)cc21
Second: CCc1cc2cc([N+](=O)[O-])ccc2s1
The melting point of the first is higher: 163 to 164 °C for the first, 55 °C for the second.

First: COc1ccc(C(C)(O)Cc2ccncc2)cc1OC1CCCC1 (centres undefined)
Second: COc1ccc(OC(CCCN(C)C2C3CCC2CNC3)c2ccc(C#N)cc2)cc1OC (centres undefined)
The melting point of the first is higher: 99 to 101 °C for the first, 47 to 53 °C for the second.

Compared with `COc1cc2c(c(OC)c1/C=C/c1ccc(CN)cc1)C(C)(C)CCC2(C)C`, `COc1ccc2c(c1)C(CC(=O)O)=C(C)C2=Cc1ccc(S(C)=O)cc1` (centres undefined) is higher in melting point: 59 to 60 °C for the first, 200 to 204 °C for the second.

First: CC(=O)OCC1OC(Oc2ccsc2Cc2ccc(OC(F)(F)F)cc2)C(OC(C)=O)C(OC(C)=O)C1OC(C)=O (centres undefined)
Second: O=C(O)C(=O)c1ccc(OCCOC2CCCCC2)cc1
The melting point of the first is higher: 113 to 114 °C for the first, 96 to 98 °C for the second.

First: Nc1nnn(CC(F)(F)F)n1
Second: Nc1c(SC(F)(F)F)nc(Cl)n1-c1c(Cl)cc(C(F)(F)F)cc1Cl
The melting point of the first is lower: 95 to 97 °C for the first, 172 °C for the second.

First: CNc1c2oc3ccccc3c2nn1C
Second: CC(=O)Nc1ccc(S(=O)c2ccccc2)cc1 (centres undefined)
The melting point of the first is higher: 154 to 156 °C for the first, 135 to 137 °C for the second.

First: CCc1nc(C)cn1CO
Second: CS(=O)c1ncc(Cl)cn1 (centres undefined)
The melting point of the first is higher: 83.1 to 86.3 °C for the first, 48 °C for the second.

Compared with `BrCc1ccc(OCC(c2ccccc2)c2ccccc2)cc1`, `FC(F)(F)C1(c2cc(Cl)cc(Cl)c2)CC(c2ccc(-n3ccnc3)cc2)=NO1` (centres undefined) is higher in melting point: 70 to 73 °C for the first, 193 to 195 °C for the second.

Compared with `N[C@@H](Cc1ccc([N+](=O)[O-])cc1I)C(=O)O`, `NC(=O)NCCCCCC1CCSS1` (centres undefined) is lower in melting point: > 200 °C for the first, 74 to 78 °C for the second.

Work on `CC(C)C1COCc2nc3c(N)nc4c(c3n21)CCCC4` (centres undefined) yielded a melting point of 158 to 160 °C.
